Measurements published in patent US10857107B2, “Cannabinoid-containing complex mixtures for the treatment of mast cell-associated or basophil-mediated inflammatory disorders” (priority 2017, dated 2020).
pIC50: −log10 of the molar value. “Also recorded” adds a separate entry of the source. Read-outs that look alike come from different tables or passages of the source.

Assays:
Format in all cases: cell-based
[1] = system: mast cells (from a mast cell line, RBL2H3); test: FcεRI ligation-induced mast cell degranulation measured by histamine release (ELISA); conditions: nanomolar concentration; compared to PMA/Iomomycin (100%)
[2] = system: RBL2H3 cells; test: FcεRI-induced degranulation with CBG/CBD, FAAH inhibitor or PDEI pre-incubation (beta-hexoaseaminidase assay); conditions: for Outcome (normalized cellular degranulation response): T60
Description: Experiments were conducted to test the hypothesis that CBG-mediated anti-inflammatory effects, i.e., suppression of degranulation, is by increase of intracellular cAMP and the increase of intracellular cAMP results from CBG's antagonizing effects on the interaction between AEA and CB1/2 receptors. To test this hypothesis, the ability of CBG to decrease FcεRI-induced degranulation was assessed. Mast cells were incubated with or without CBG before addition of FcεRI. An FAAH inhibitor was used as a control to increase the levels of AEA and thus saturate the CB1/2 receptors, resulting in decreased cAMP. PDEI was used as a control to directly increase the levels of intracellular cAMP. Cells were also incubated with CBD alone or CBG and CBD to assess the synergistic effects of CBD and CBG.
RBL2H3 cells were pre-incubated for 3 h at 37° C. at with (i) 10 μM FAAH inhibitor LY2183240/PF750 cocktail, (ii) 10 μM PDEI 3-isobutyl-1-methylxanthine (IBMX), or (iii) vehicle (Table 3). Vehicle or 300 nM CBG (30% of the CBG dose previously determined to cause maximal enhancement of the suppressive effect of CBD) was applied to Groups D-F and J-I, the first—one hour prior to FcεRI-induction—and the second—two hour prior to FcεRI-induction (T0, antigen), and remained throughout the course of the experiment. Vehicle was DMSO, methanol, or PBS. 10 μM CBD was additionally added to Groups D-I, 20 minutes prior to FcεRI-induction of degranulation. Cellular degranulation was measured using a beta-hexoaseaminidase assay at 1 h post-induction (T60). Replicates were done in triplicate and averaged. Degranulation of each of the groups was normalized to Row L. The outcome data presented in the column “Outcome” of Table 3 is the normalized cellular degranulation response of each averaged group. Group ABC was p<0.005 relative to Group LMN. Group GHI was p<0.005 relative to Group LMN. Row F had no significant difference relative to Row D. Row E was p<0.05 relative to Row D.

[3] = system: mast cells (from a mast cell line, RBL2H3); test: FcεRI ligation-induced mast cell degranulation measured by histamine release (ELISA); conditions: for inhibition at 10 µM: Rattus norvegicus; for anti-inflammatory effects on mast cell degranulation (in words): individual compound alone, 10 μM, histamine release; for increase of FcεRI ligation-induced histamine secretion: compound alone at 10 μM (FIG. 5)
Description: For the FcεRI assay, mast cells (from a mast cell line, RBL2H3) were plated in cluster plates at 5×10^4 cells/well. Monolayers were washed and incubated in 200 μl Tyrode's buffer. The mast cells were then primed with 1 μg/ml IgE-anti-DNP antibodies for 16 hours. The cells were then washed three times and a cannabinoid-containing complex mixture, prepared as above-described, was applied. The tested complex mixtures were applied in an amount calculated to expose the mast cells to 10 μM of cannabidiol and 10 μM of each minor cannabinoid or terpene component. Control for maximal FcεRI ligation-induced degranulation included no cannabinoid-containing complex mixture.
After 10 minutes, 250 ng/ml of DNP-BSA was applied to ligate FcεRI molecules on the mast cell surface.
Mast cell culture medium was collected 60 minutes after exposure to DNP-BSA with or without a tested cannabinoid-containing complex mixture. Degranulation of the mast cells was tested by measuring histamine release using a commercial ELISA kit (e.g., histamine ELISA kit available from ENZO Life Sciences, Inc., Rocky Mountain Diagnostics, Inc., etc.).
Mast cell degranulation for each tested complex mixture was measured based on the amount of histamine release and is presented as % histamine release compared to histamine release in response to PMA/Ionomycin (100%). Each complex mixture was tested in twenty-four (8×3) independent experiments and data from the twenty four independent experiments were averaged. The averaged values are presented as a bar for each complex mixture in FIG. 2. Standard deviations are also provided in the graph.
The % degranulation in response to each cannabinoid-containing complex mixture was used to calculate % inhibition of degranulation by subtracting the % degranulation from 100%.
Anti-inflammatory effects of (i) each major cannabinoid, (ii) each minor cannabinoid, and (iii) each selected terpene, were assessed based on their inhibition of FcεRI-induced mast cell degranulation by measuring histamine release as described above.
Their anti-inflammatory effects are presented as % reduction of histamine release in the presence of the tested compound compared to the histamine release in the presence of PMA/Ionomycin (0%). Standard deviations of the experimental data are also provided in the graphs.

[4] = system: Mast cells; test: FcεRI-induced mast cell degranulation, beta-hexoseaminidase assay (dose response); conditions: for change of anti-inflammatory effects when 10 μM cannabigerol was added: various concentrations (1 nM to 50 μM) plus 10 μM cannabigerol; for pIC50: read-out: IC50 of inhibitory effects on FcεRI-induced degranulation
Description: As provided in FIG. 12, anti-inflammatory effects of limonene, and cannabidiol (CBD), were assessed at 11 different concentrations (x-axis: 0, 1, 5, 10, 50, 100, 500, 1000, 5000, 10000, 50000 nM) in the presence (a line with triangles and a line with circles, respectively) or absence of 10 μM cannabigerol (CBG-a line with diamonds and a line with exes, respectively). In this experiment, anti-inflammatory effects of the mixtures were based on effects on mast cell degranulation, measured using a beta-hexoseaminidase assay.
Beta-hexoseaminidase assays: Mast cells were primed with anti-DNPA IgE, and then stimulated with DNP-BSA in the presence of absence of a tested composition as described in Example 2. Mast cell culture medium was collected 60 minutes after exposure to FcεRI and incubated for 45 minutes at 37° C. 25 μl of its supernatant was removed, clarified by microcentrifugation, and transferred to a 96 well plate containing 100 μl per well 1 mM p-N-acetyl glucosamine (Sigma) in 0.05 M citrate buffer pH 4.5. After incubating the mixture for 1 hour at 37° C., the reaction was quenched by addition of 100 μl per well 0.2 M glycine, pH 9.0. Beta-hexosaminidase levels were read as OD at 405 nm.

[5] = system: Mast cells; test: Histamine release with cannabidivarin, with or without FcεRI ligation (time course)
Description: FIG. 7A provides data from Example 3 illustrating pro-inflammatory effects of cannabidivarin. […] The X-axis represents minutes after application of the FcεRI crosslinking agonist, and the y-axis represents the amount of histamine release (pg/10 million cells). FIG. 7B compares histamine release (pg/10 million cells) measured 10 minutes after exposure to the FcεRI crosslinking agonist (left) or to cannabidivarin without the FcεRI crosslinking agonist (right).
The x-axis represents minutes after application of BSA-DNP and y-axis represents the amount of histamine release (pg/10 million cells). Pro-inflammatory effects of cannabidivarin was even greater than effects of FcεRI ligation; histamine release in response to FcεRI ligation was about 220 pg/10 million cells after 10 minute exposure, while histamine release in response to cannabidivarin (without concurrent FcεRI ligation) was about 340 pg/10 million cells.

[6] = system: RBL2H3 cells; test: Intracellular free calcium assay (Fluo-4); conditions: external calcium 1 mM
Description: FIG. 16 provides data from Example 6 illustrating the intracellular free calcium measurements in the presence of external calcium (1 mM) in RBL2H3 cells stimulated in the absence (control vehicle) or presence of 1, 10, or 50 μM CBG. Ionomycin was used as a positive control. Stimuli were added at 20 s.
RBL2H3 cells were washed and incubated with 0.2 μM Fluo-4 for 30 minutes at 37° C. in a standard modified Ringer's solution (145 mM NaCl, 2.8 mM KC1, 10 mM CsCl, +/−1-10 mM CaCl2, 2 mM MgCl2, 10 mM glucose, 10 mM HEPES, pH 7.4, 330 mOsm). Cells were transferred to 96-well plates at 50,000 cells/well and stimulated with 1, 10, or 50 μM CBG. 500 nM ionomycin was used as positive control to induce calcium response. Calcium signals were acquired using a Flexstation 3 (Molecular Devices, Sunnydale, USA) for 3 min. Data was analyzed using SoftMax® Pro 5 (Molecular Devices).

[7] = Antigen at T0, only the named substance(s), otherwise vehicle, 300 nM CBG, 10 μM CBD, 10 μM LY2183240/PF750 or IBMX, normalized to Row L
[8] = RBL-2H3, read-out: % inhibition of FcεRI-induced degranulation (reduction of histamine secretion)
[9] = Antigen at T0, cells pre-incubated 3 h with 10 μM FAAH inhibitor LY2183240/PF750 cocktail, 300 nM CBG, 10 μM CBD
[10] = Antigen at T0, cells pre-incubated 3 h with 10 μM PDEI IBMX, 300 nM CBG, 10 μM CBD

## CCCCCCC(C)(C)c1ccc([C@@H]2C[C@H](O)CC[C@H]2CCCO)c(O)c1 [CP55940]
[1]
  suppression of histamine release of mast cells: about 30%

## CC(C)Cn1c(=O)n(C)c(=O)c2[nH]cnc21 [IBMX, 3-isobutyl-1-methylxanthine]
[2]; [7]
  Outcome (normalized cellular degranulation response): 0.34
[2]; alone, 10 μM, Row N
  reduction of FcεRI-induced degranulation: 3 fold
[2]; no Antigen (vehicle at T0), 10 μM pre-incubation 3 h
  Outcome (normalized cellular degranulation response): 0.06

## CCCCCc1cc(O)c2c(c1)OC(C)(CCC=C(C)C)C=C2 (stereo not drawn) [cannabichromene]
[3]; [8]
  inhibition at 10 µM: ≤ 20%
[3]
  anti-inflammatory effects on mast cell degranulation (in words): almost no anti-inflammatory effects

## C=C(C)[C@@H]1CCC(C)=C[C@H]1c1c(O)cc(CCCCC)cc1O [cannabidiol]
[2]; [9]
  Outcome (normalized cellular degranulation response): 0.56
[2]; [10]
  Outcome (normalized cellular degranulation response): 0.32
[2]; [7]
  Outcome (normalized cellular degranulation response): 0.54
[4]
  change of anti-inflammatory effects when 10 μM cannabigerol was added: significantly enhanced their anti-inflammatory effects
[3]; RBL-2H3, read-out: % inhibition of FcεRI-induced degranulation (reduction of histamine secretion), individual compound alone at 10 μM
  inhibition at 10 µM: 23%

## C=C(C)[C@@H]1CCC(C)=C[C@H]1c1c(O)cc(CCC)cc1O [cannabidivarin]
[5]; in response to cannabidivarin without concurrent FcεRI ligation, 10 minute exposure
  histamine release: about 340 pg/10 million cells
[5]; pretreatment with 10 μM for 10 minutes before FcεRI ligation
  effect of pretreatment on FcεRI ligation-induced histamine release: significantly enhanced pro-inflammatory effects of FcεRI ligation; also recorded: further enhanced pro-inflammatory effects
[3]
  increase of FcεRI ligation-induced histamine secretion: 26%
[3]; listed as Cannabidivarin
  increase of FcεRI ligation-induced histamine secretion: more than 20%

## CCCCCc1cc(O)c(C/C=C(\C)CCC=C(C)C)c(O)c1 [cannabigerol]
[2]; [9]
  Outcome (normalized cellular degranulation response): 0.92
[2]; [10]
  Outcome (normalized cellular degranulation response): 0.28
[2]; [7]
  Outcome (normalized cellular degranulation response): 0.98
[4]; alone, at the highest concentration tested (50 μM)
  suppression of FcεRI ligation-induced degranulation: less than 10%
[3]; [8]
  inhibition at 10 µM: ≤ 20%
[3]
  anti-inflammatory effects on mast cell degranulation (in words): almost no anti-inflammatory effects
[3]; listed as Cannabigerol
  anti-inflammatory effects on mast cell degranulation (in words): does not have significant effects on mast cell degranulation
[6]; 50 μM
  effect on intracellular calcium: moderate increase in intracellular calcium
[6]; lower doses (1 and 10 μM)
  effect on intracellular calcium: did not significantly alter the intracellular calcium

## CCCCCc1cc(O)c2c(c1)OC(C)(C)c1ccc(C)cc1-2 [cannabinol]
[3]; [8]
  inhibition at 10 µM: ≤ 20%

## C=C(C)[C@H]1CC=C(C)CC1 [limonene]
[4]; alone
  pIC50: ~6.32
[4]; in combination with 10 μM cannabigerol (CBG)
  pIC50: ~7.00
[4]
  change of anti-inflammatory effects when 10 μM cannabigerol was added: significantly enhanced their anti-inflammatory effects
[3]; individual compound alone at 10 μM
  % inhibition of FcεRI-induced degranulation (reduction of histamine secretion): 24%

## C=CC(C)(O)CCC=C(C)C (stereo not drawn) [linalool]
[3]
  anti-inflammatory effects on mast cell degranulation (in words): almost no anti-inflammatory effects

## C=CC(C)(O)CCC=C(C)CCC=C(C)C (stereo not drawn) [nerolidol]
[3]
  anti-inflammatory effects on mast cell degranulation (in words): almost no anti-inflammatory effects

## C/C(=C\CO)CCC[C@H](C)CCC[C@H](C)CCCC(C)C [phytol]
[3]
  anti-inflammatory effects on mast cell degranulation (in words): almost no anti-inflammatory effects

## CC1=CCC2CC1C2(C)C (stereo not drawn) [pinene]
[3]
  anti-inflammatory effects on mast cell degranulation (in words): almost no anti-inflammatory effects
